In US9289445B2, “Compositions and methods for treating or preventing a retrovirus infection” (University of Rochester, priority 2011, dated 2016):

How the values were obtained:
[1] = test system: SIVagm Sab1 RT; experiment: Steady state kinetics of reverse transcriptase for dTTP/dUTP; assay type: biochemical, simian immunodeficiency virus (SIVagm Sab); settings: SIV RT
Description: (§1) Retrovirus RT was assessed for its ability to incorporated dTTP and dUTP at physiologically relevant concentrations. First, Km of HIV-1 RT, SIV RT, MuLV RT, and FIV RT for both dTTP and dUTP was measured.
(§2) All primer extension reactions were analyzed with urea denaturing 10-16% PAGE gels and scanned with a phosphoimager (Biorad, Hercules, Calif.) and quantified with the Biorad Quantity One software. Nonlinear regression analysis was done with Kaleida Graph (Synergy Software, Reading, Pa.). Rates were determined with a single exponential, and Michaelis Menten fits were completed as previously described in Kennedy et al. Biochemistry 48:11161-11168 (2009).

[2] = molecular target: T1, HIV-1 RT (Human immunodeficiency virus type 1 group M subtype B, UniProt P04585); experiment: as above; assay type: biochemical
T1 construct: Pre-Steady State Kinetic Parameters of HIV-1 RT for dTTP/dUTP
Description: as §1
The single nucleotide incorporation reactions were conducted using 20 nM template/primers (40mer RNA template annealed to Primer A, Ext-T primer, Ext-G primer, or Ext-C primer) and 20 nM RT in 1× reaction buffer for 5 minutes at varying concentrations of NTP. Reactions were performed in triplicate.
as §2

[3] = molecular target: T1, HIV-1 RT; experiment: Primer extension followed by E. coli UNG2 digestion (dUTP incorporation); assay type: biochemical
Description: FIG. 8A includes a schematic of a coupled RT extension reaction UNG2 digestion assay and a gel. RT was incubated with i) the dNTP concentrations found in macrophages or PBMCs, and ii) either the dUTP concentration for those cells types or ddH20. These reactions were quenched with EDTA and subjected to E. Coli UNG2 digestion, followed by 95° C. incubation and UREA PAGE gel electrophoresis. The digested bands (*) were quantified and plotted relative to total unextended and extended products. […] FIG. 8C includes a gel showing the results of single nucleotide extension reactions of HIV-1 RT with dTTP and dUTP concentrations found in macrophages. […] The rates of product formation for dTTP (black line), dUTP (blue line), and both dTTP and dUTP (green line) were plotted.
HIV-1 RT mediated DNA synthesis in nucleotide pools found in dividing and non-dividing cells was further assessed using a primer extension assay followed by E. coli UNG2 digestion to quantify the amount of dUTP incorporated under these condition (FIG. 8). The presence of a […] band at the first dTTP/dUTP incorporation site was used to monitor the fraction of DNAs that contained a dUTP following UNG digestion (see * in FIG. 8). […] The single nucleotide extension assays were performed to compare the rate of incorporation dTTP, dUTP, or both nucleotides at concentrations found in non-dividing cells. […]

[4] = molecular target: T1, HIV-1 RT; experiment: Pre-steady state quench flow titrations for dTTP and dUTP; assay type: biochemical
Description: To confirm that selectivity is not pronounced during the binding or isomerization steps of polymerization, pre-steady state quench flow titrations for dTTP and dUTP were performed with HIV-1 RT.

[5] = molecular target: FIV RT (Feline immunodeficiency virus, UniProt P16088); experiment: Steady state kinetics of reverse transcriptase for dTTP/dUTP; assay type: biochemical
Description: as §1, §2

[6] = molecular target: MuLV RT (Moloney murine leukemia virus, UniProt P03355); experiment: as above; assay type: biochemical
Description: as §1, §2

[7] = molecular target: T1, HIV-1 RT; experiment: Single nucleotide extension at macrophage nucleotide concentrations; assay type: biochemical; settings: rNTP alone at macrophage concentration
Excerpt: FIGS. 4A-4E compare the dNTP and rNTP incorporation rates of HIV-1 RT at nucleotide concentrations found in human macrophages. Incorporation kinetics of HIV-1 RT (green circle) for individual dNTPs and rNTPs at their concentrations found in macrophages (see Table 1) were compared by single nucleotide extension reactions. FIG. 4A is a gel showing a representative time-course reaction set for dATP alone, ATP alone, or both dATP and ATP at their macrophage concentrations. P: unextended 17-mer primer, E: extended 18-mer product. and C: no RT control. FIG. 4B includes graphs. The percentages of the primer extension at early time points were plotted to compare the incorporation rate for each dNTP or rNTP alone as well as for dNTPs and rNTPs at their macrophage concentrations. FIG. 4C is a gel showing a time-course reaction. Identical reactions were conducted with SIVagm Sab-1 RT. FIG. 4D is a table showing the steady state Km values of HIV-1 RT to rNTPs determined by single nucleotide incorporation assays. FIG. 4E is a graph comparing rNTP concentrations (black bars) of macrophages and PBMCs and the Km values (red zone) of HIV-1 RT to rNTPs. Grey bars: average concentrations of dNTPs of the two target cell types obtained from Table 1.
The incorporation kinetics for individual dNTPs and rNTPs by retrovirus RT at the concentrations found in non-dividing cells were assessed. For this, a primer extension reaction similar to that used in FIG. 3C was employed, except nucleotide specific primers and a single dNTP, rNTP, or both were used to estimate individual nucleotide incorporation rates. […] Upon combining dNTPs and rNTPs in a reaction (FIGS. 4A and B, purple dotted lines), the total single nucleotide extension rate appeared to be elevated as compared to the rates of either dNTP (red line) or rNTP alone. When primer extension products were plotted by time, primer extension was accelerated in the presence of both dNTPs and rNTPs at their macrophage concentrations as compared to the reactions containing either dNTPs or rNTPs alone. The results of this single nucleotide assay are consistent with the data from the multiple nucleotide incorporation assay (FIG. 3C).

[8] = test system: HIV-1 vector (DHIV-GFP) in activated CD4+ T cells; experiment: HIV-GFP vector transduction of activated CD4+ T cells (GFP FACS); assay type: cell-based; settings: ddUTP, CD4+ T cells
Description: Next, rACT was evaluated for its ability to inhibit HIV-1 replication in non-dividing cells. The transduction efficiency of an HIV-1 vector in primary human macrophages in the presence and absence of rACT was measured. Human macrophages, which were prepared from multiple donors, were pre-incubated with various concentrations of rACT, and then transduced with an HIV vector (D3-GFP), which expressed all HIV-1 proteins except Env and Nef (replaced with eGFP). Virus infectivity was determined by FACS analysis for GFP expression at 7 days post infection. […] Finally, the effect of rACT on HIV-1 infection in activated CD4^+ T cells was examined.
(§3) Dideoxy uracil triphosphate (ddUTP) was assessed for its ability to inhibit viral reverse transcription in non-dividing cells. Primary human macrophages and CD4^+ T-cells were isolated from human buffy coats and pretreated with ddUTP. The treated cells were then transduced with a single round of VSV-G pseudotyped HIV-1 vector D3-HIV in the presence of various concentrations of drug.
rACT was tested in T cells as follows, human primary activated CD4^+ T cells (2.5×10^5) cells isolated from two donors were pre-treated with 0, 0.1, and 1 mM rACT for 4 hours, and then the cells were transduced with DHIV-GFP. The transduced cells were fixed at 48 hours post transduction, and analyzed by FACS for determining the percent of GFP cells. […]

[9] = test system: HIV-1 2-LTR DNA circles (proviral DNA synthesis) in macrophages; experiment: Quantitative 2LTR circle PCR in transduced macrophages; assay type: cell-based; settings: ddUTP treated cells
Description: Human macrophages, which were prepared from multiple donors, were pre-incubated with various concentrations of rACT, and then transduced with an HIV vector (D3-GFP), which expressed all HIV-1 proteins except Env and Nef (replaced with eGFP).
as §3
Equal p24 level of the produced vector was used for infecting human macrophages pre-incubated with different concentrations of rACT (RI Chemicals, CA) for 12 hours. For ddUTP, the produced vector was pre-incubated for at least two hours. One half of the harvested cells were used for determining the percentages of the GFP expressing and/or propidium iodide (PI) stained cells by FACS at 7 days post infection. All cells used to asses transduction efficiency were gated or stained with propidium iodide to assure live cells were measured. The remaining cells were used for the extraction of genomic DNA. Quantitative 2LTR circle PCR assay using real-time PCR was normalized by total genomic DNA (Biorad, Hercules, Calif.).

[10] = test system: primary human macrophages
Description: The treated cells were then transduced with a single round of VSV-G pseudotyped HIV-1 vector D3-HIV in the presence of various concentrations of drug.
The purified human monocytes from three different donors were differentiated to macrophages as described previously, and D3HIV-GFP vector system expressing GFP, was also prepared as previously described in Jamburuthugoda et al. J. Biol. Chem. 281:13388-13395 (2006); Diamond et al. J. Biol. Chem. 279:51545-51553 (2004); Jamburuthugoda et al. J. Biol. Chem. 283:9206-9216 (2008); and Weiss et al. Biochemistry 43:4490-4500 (2004). […] One half of the harvested cells were used for determining the percentages of the GFP expressing and/or propidium iodide (PI) stained cells by FACS at 7 days post infection. All cells used to asses transduction efficiency were gated or stained with propidium iodide to assure live cells were measured.

[11] = test system: HIV-1 vector (D3-GFP) in primary human macrophages; experiment: HIV-GFP vector transduction of primary macrophages (GFP FACS); assay type: cell-based; settings: ddUTP pretreated macrophages, flow cytometry
Description: Human primary macrophages were preincubated with different concentrations of rACT (0, 10, 100 and 100 μM) for 24 hours and then transduced with HIV-GFP vector (equal p24 amounts). The percentages of GFP positive macrophages and PI positive cells in a representative donor, which were determined by FACS at 7 days post transduction, are shown. […] These experiments were performed in triplicate from three different blood donors.
Primary human macrophages were pretreated with ddUTP and transduced with a single round VSV-G pseudotyped HIV-1 vector (D3HIV). […] FIG. 10B is a graph showing the results from flow cytometry analysis of the transduced cells.
Next, rACT was evaluated for its ability to inhibit HIV-1 replication in non-dividing cells. The transduction efficiency of an HIV-1 vector in primary human macrophages in the presence and absence of rACT was measured. Human macrophages, which were prepared from multiple donors, were pre-incubated with various concentrations of rACT, and then transduced with an HIV vector (D3-GFP), which expressed all HIV-1 proteins except Env and Nef (replaced with eGFP). Virus infectivity was determined by FACS analysis for GFP expression at 7 days post infection.
Dideoxy uracil triphosphate (ddUTP) was assessed for its ability to inhibit viral reverse transcription in non-dividing cells. […]

For `O=c1ccn([C@H]2C[C@H](O)[C@@H](COP(=O)(O)OP(=O)(O)OP(=O)(O)O)O2)c(=O)[nH]1` [dUTP], the Km [1] was 17 ± 3.5 nM, the Km [2] was 27.7 ± 7 nM and the “dUTP incorporation, fraction of all synthesized DNA” value ([3]; dUTP and dNTP levels found in non-dividing cells) was “⅓”. For the same molecule, the “dUTP incorporation, non-dividing versus dividing cell environment” value ([3]; non-dividing compared to dividing cell environment) was “approximately 5 fold”, the Kd [4] was 5.1 ± 1.93 µM and the Kpol [4] was 194.39 ± 30.0 S^−1. For the same molecule, the Selectivity [4] was 1.52, the kpol/kd [4] was 38 μM^−1 S^−1 and the Km [5] was 180 ± 4.5 nM. For the same molecule, the Km [6] was 253 ± 52.1 nM.
For `Nc1ncnc2c1ncn2[C@@H]1O[C@H](COP(=O)(O)OP(=O)(O)OP(=O)(O)O)[C@@H](O)[C@H]1O` [ATP], the “rNTP incorporation by HIV-1 RT” value [7] was “efficiently”.
For `Cc1cn([C@H]2C[C@H](O)[C@@H](COP(=O)(O)OP(=O)(O)OP(=O)(O)O)O2)c(=O)[nH]c1=O` [dTTP], the Km [1] was 18.4 ± 4.3 nM, the “Selectivity (dTTP/dUTP)” value [1] was 0.839 and the Km [2] was 21.8 ± 2.8 nM. The “Selectivity (dTTP/dUTP)” value [2] was 1.298, the Kd [4] was 3.4 ± 0.62 µM and the Kpol [4] was 85.72 ± 7.3 S^−1. The Selectivity [4] was 1.0, the kpol/kd [4] was 25 μM^−1 S^−1 and the Km [5] was 58.6 ± 6.6 nM. For the same molecule, the “Selectivity (dTTP/dUTP)” value [5] was 3.754, the Km [6] was 50.4 ± 22 nM and the “Selectivity (dTTP/dUTP)” value [6] was 4.969.
In the case of `O=c1ccn([C@H]2CC[C@@H](COP(=O)(O)OP(=O)(O)OP(=O)(O)O)O2)c(=O)[nH]1` [ddUTP, Dideoxy uracil triphosphate], the “reduction in transduction efficiency” value [8] is reported as “Little or no reduction in transduction efficiency”, the “2LTR circles (QT-PCR)” value [9] is reported as 2LTR circles accumulated in the cells treated with higher concentrations of drug and the cell death [10] is reported as “little cell death”. For the same molecule, the “inhibition of transduction (eGFP positive live macrophages)” value [11] was “dose dependent inhibition of transduction”.
In the case of `O=c1ccn([C@@H]2O[C@H](COP(=O)(O)OP(=O)(O)OP(=O)(O)O)[C@@H](O)[C@H]2O)c(=O)[nH]1` [UTP], the “rNTP incorporation by HIV-1 RT” value [7] is reported as “less efficiently”.
`Nc1ccn([C@@H]2O[C@H](COP(=O)(O)OP(=O)(O)OP(=O)(O)O)[C@@H](O)[C@H]2O)c(=O)n1` [CTP] was tested, and the “rNTP incorporation by HIV-1 RT” value [7] was “efficiently”.
In the case of `Nc1nc2c(ncn2[C@@H]2O[C@H](COP(=O)(O)OP(=O)(O)OP(=O)(O)O)[C@@H](O)[C@H]2O)c(=O)[nH]1` [GTP], the “rNTP incorporation by HIV-1 RT” value [7] is reported as “less efficiently”.
